Data: patent US6420412B2, “Eprosartan dihydate and a process for its production and formulation” (SmithKline Beecham Corporation, priority 1996, dated 2002)

What was measured:
Type in all cases: physicochemical
[1] = Moisture uptake and hydrate conversion on storage at high humidity
Experimental: (§1) Eprosartan is anhydrous, and, by itself, is stable at ambient temperature and humidity, as well as at accelerated conditions (30° C./79% RH or 40° C./75% RH for up to 6 months). […] In the former case where the hydrate is obtained by moistening the drug substance, the hydrated form is not stable, and is generally converted back into the anhydrous form during drying.

[2] = Storage stability of the drug substance
Experimental: as §1

[3] = Compactibility in the solid dosage form; conditions: compared to the corresponding anhydrous form

Structure (SMILES) | conversion of solid form on storage ([1]; moistened then stored in closed container, or dry powder at relative humidity of 98% or higher, ambient or higher temperatures, 8 days or longer) | moisture pick-up at higher humidities ([1]; typically up to 95% RH) | stability at accelerated conditions ([2]; 30° C./79% RH or 40° C./75% RH for up to 6 months) | stability ([2]; drug substance by itself, ambient temperature and humidity) | compactibility in the solid dosage form [3] | stability of hydrate obtained by moistening the drug substance ([2]; no excipient, during drying generally converted back into the anhydrous form)
CCCCc1ncc(/C=C(\Cc2cccs2)C(=O)O)n1Cc1ccc(C(=O)O)cc1 [Eprosartan, (E)-α-[2-n-butyl-1-[(4-carboxyphenyl)methyl]-1H-imidazol-5-yl]methylene-2-thiophenepropionic acid monomethanesulfonate] | converts to the hydrated form | does not pick up moisture | stable | stable | – | –
CCCCc1ncc(/C=C(\Cc2cccs2)C(=O)O)n1Cc1ccc(C(=O)O)cc1.CS(=O)(=O)O.O.O [dihydrate, (E)-α-[2-n-butyl-1-[(4-carboxyphenyl)methyl]-1H-imidazol-5-yl]methylene-2-thiophenepropionic acid monomethanesulfonate dihydrate] | – | – | – | – | more compactible | not stable
